According to US20250320228A1, “PYRIDO[3,2-D]PYRIMIDINES AS HPK1 INHIBITORS” (Merck Patent GmbH, priority 2022, published 2025):
Counter-ions that a name gives are not always drawn. Like-named read-outs stand apart in the source and are kept apart here.

Key:
HPK1 pSLP76 (Ser376) = experiment: Cellular assay phospho-SLP-76 (Ser376); assay type: cell-based, human; conditions: read-out: HPK1 pSLP76 IC50
Protocol: Cellular Assay—Phospho-SLP-76 (Ser376).
Inhibition of HPK1 enzymatic activity in cells was determined by detection of SLP76 phosphorylation at Ser376 residue in lysate from Jurkat (human) and EL-4 (mouse) cells. Jurkat and EL-4 cells express both HPK1 and SLP76 naturally. All cells were cultured in RPMI 1640 media containing 10% heat inactivated fetal bovine serum (FBS) and 1× Penicillin-Streptomycin. In either Jurkat or El-4 assay, cells were pre-incubated with test compounds prior to T cell stimulation by respective αCD3/αCD28 Dynabeads™. For detection, plates were read on the Envision and percent inhibition and IC50 were determined by Smart fit in Genedata Analyzer.
For Jurkat cells: 35 μL cell suspension were dispensed at a density of 30,000 cells/well in 384-well plates containing HBSS (Gibco, 14025076)+0.1% BSA). 10-point logarithmic serial dilution of test compounds in DMSO were prepared by a Hamilton automated liquid handling robot and 35 nL was transferred into each well by an Echo liquid handler. After 60 min. pre-incubation, the cells were stimulated by adding 5 μL human T activator αCD3/αCD28 Dynabeads™ (Gibco, 11132D) at 1.2×107 beads/ml for 15 minutes at 37° C. Detection of Ser376 phosphorylation status was accomplished by first adding 10 μL of 5× AlphaLISA lysis buffer (Perkin Elmer, ALSU-PSLP-A500) to each well of the cell plate using a Multidrop Combi (5840300), followed by 20 minutes shaking. 10 μL cell lysate from each treatment were then transferred to a white 384-well plate (Corning 3572) and incubated with AlphaLISA acceptor beads for one hour (AlphaLISA SureFire Ultra p-SLP76 (Ser376), Perkin Elmer, ALSU-PSLP-A500), and donor beads for additional 2 hours at room temperature in the dark. […]

[1] = target: full-length human HPK1 (MAP4K1) (Homo sapiens (Human), UniProt Q92918); experiment: HPK1 kinase assay (biochemical, ADP-Glo); conditions: read-out: HPK1 enzymatic IC50
Text: HPK1 kinase assay (Biochemical assay).
A recombinant fusion protein consisting of full-length human HPK1 (MAP4K1) with an N-terminal Glutatione S-transferase (GST) tag was produced in insect cells Sf21 using the baculovirus expression system. GST-HPK1 protein was purified from cell lysates by glutathione Sepharose affinity chromatography. The assay is run in three continuous steps: 1) the HPK1 enzymatic kinase reaction, 2) an ATP depletion, and 3) the ADP detection, the steps 2 and 3 are performed with ADP-Glo™ Kinase Assay kit from Promega (V9101). Test compounds were prepared by 10-point serial dilution in dimethyl sulfoxide (DMSO) and 100 nL of each dilution was spotted onto a 384-well Optiplate (Perkin Elmer and Cat #6007299) by Labcyte Echo. 5 μL kinase reaction buffer (0.02% Brij-35, 2 mM DTT, 50 mM HEPES pH 7.5, MgCl2 10 mM, BSA 0.01% and β-glycerophosphate 12.5 mM) containing HPK1 (3.2 nM) enzyme was transferred to each well and incubated for 15 minutes at room temperature at 60% humidity. The enzymatic reaction was started by adding 5 μl of Start-Mix (10 μM ATP and 3.235 μM MBP). After 120 minutes, the reaction was stopped by adding 5 μL of ADP-Glo reagent (Promega, V9101) and incubating for 40 min. in the dark at 23° C. To determine the level of ADP, 10 μl ADP-Glo Detection solution was added and incubated for 1 hour at 23° C. in the dark. The plate was transferred to a Perkin Elmer EnVision (2104 Multilabel Reader) for luminescence detection and percent inhibition activity and IC50 value were determined using Genedata Screener.

[2] = SLP76 Ser376 phosphorylation after αCD3/αCD28 stimulation, Jurkat (human) or EL-4 (mouse) cells, table does not say which
[3] = GST-HPK1 3.2 nM, 10 μM ATP, MBP substrate, ADP-Glo

full-length human HPK1 (MAP4K1), sequence (Q92918 whole entry): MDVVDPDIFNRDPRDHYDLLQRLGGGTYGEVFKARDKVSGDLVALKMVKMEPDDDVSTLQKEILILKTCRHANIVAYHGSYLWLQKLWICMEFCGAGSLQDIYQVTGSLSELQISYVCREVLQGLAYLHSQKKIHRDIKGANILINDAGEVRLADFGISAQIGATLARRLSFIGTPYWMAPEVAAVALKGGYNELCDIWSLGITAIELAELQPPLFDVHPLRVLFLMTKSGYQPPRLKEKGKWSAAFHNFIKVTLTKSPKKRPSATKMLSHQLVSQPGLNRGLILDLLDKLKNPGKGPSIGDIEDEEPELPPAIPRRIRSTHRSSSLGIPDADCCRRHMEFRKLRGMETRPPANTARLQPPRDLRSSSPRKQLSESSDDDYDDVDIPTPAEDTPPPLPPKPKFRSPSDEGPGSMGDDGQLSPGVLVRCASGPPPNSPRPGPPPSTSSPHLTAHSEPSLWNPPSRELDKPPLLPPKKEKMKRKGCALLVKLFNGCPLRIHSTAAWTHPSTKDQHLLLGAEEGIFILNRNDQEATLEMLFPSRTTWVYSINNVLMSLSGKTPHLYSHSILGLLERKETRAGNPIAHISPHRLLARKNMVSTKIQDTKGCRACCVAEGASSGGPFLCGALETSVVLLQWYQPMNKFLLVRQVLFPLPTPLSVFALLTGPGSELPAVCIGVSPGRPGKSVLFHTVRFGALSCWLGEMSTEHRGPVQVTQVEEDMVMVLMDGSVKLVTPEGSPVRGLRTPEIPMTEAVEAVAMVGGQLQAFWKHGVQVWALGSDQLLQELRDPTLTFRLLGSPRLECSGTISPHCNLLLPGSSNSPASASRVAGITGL

SMILES | IC50 (HPK1 pSLP76 (Ser376); [2]) | IC50 [1, 3] | IC50 (HPK1 pSLP76 (Ser376); Homo sapiens, Jurkat) | IC50 [1]
CCn1ncc(-c2cc(C(N)=O)c3ncnc(N[C@@H]4CNC[C@@H](F)C4)c3n2)c1C [Example 8, 6-(1-ethyl-5-methyl-1H-pyrazol-4-yl)-4-(((3S,5S)-5-fluoropiperidin-3-yl)amino)pyrido[3,2-d]pyrimidine-8-carboxamide] | < 500 nM | < 100 nM |  | 
CCn1cc(-c2cc(C(N)=O)c3ncnc(N[C@@H]4CNC[C@@H](F)C4)c3n2)c(C)n1 [Example 9, 6-(1-ethyl-3-methyl-1H-pyrazol-4-yl)-4-(((3S,5S)-5-fluoropiperidin-3-yl)amino)pyrido[3,2-d]pyrimidine-8-carboxamide] | < 500 nM | < 100 nM |  | 
CC(C)(O)COc1ccc(-c2cc(C(N)=O)c3ncnc(N[C@@H]4CNC[C@@H](F)C4)c3n2)cc1 [Example 12, 4-(((3S,5S)-5-fluoropiperidin-3-yl)amino)-6-(4-(2-hydroxy-2-methylpropoxy)phenyl)pyrido[3,2-d]pyrimidine-8-carboxamide] | < 500 nM | < 100 nM |  | 
NC(=O)c1cc(-c2ccc(OCC3(O)CC3)cc2)nc2c(N[C@@H]3CNCCC3(F)F)ncnc12 [Example 16, (R)-4-((4,4-difluoropiperidin-3-yl)amino)-6-(4-((1-hydroxycyclopropyl)methoxy)phenyl)pyrido[3,2-d]pyrimidine-8-carboxamide] | < 500 nM | < 100 nM |  | 
NC(=O)c1cc(C2=CCC(N3CCOCC3)CC2)nc2c(N[C@H]3CCCNC3)ncnc12 (stereo partly drawn) [Example 17, 6-(4-morpholinocyclohex-1-en-1-yl)-4-(((S)-piperidin-3-yl)amino)pyrido[3,2-d]pyrimidine-8-carboxamide] | 500 to 1000 nM | < 100 nM |  | 
NC(=O)c1cc(-c2ccc(CN3CCOCC3)cc2)nc2c(N[C@@]3(c4ccccc4)CCCNC3)ncnc12 [Example 18] | > 1000 nM | 100 to 1000 nM |  | 
COCCOc1ccc(-c2cc(C(N)=O)c3ncnc(N[C@H]4CCCNC4)c3n2)cc1 [Example 24, (S)-6-(4-(2-methoxyethoxy)phenyl)-4-(piperidin-3-ylamino) pyrido[3,2-d]pyrimidine-8-carboxamide] | < 500 nM | < 100 nM |  | 
C[C@H]1CN(Cc2ccc(-c3cc(C(N)=O)c4ncnc(N[C@H]5CCCNC5)c4n3)cc2)CCO1 [Example 27, 6-(4-[[(2S)-2-methylmorpholin-4-yl]methyl]phenyl)-4-[(3S)-piperidin-3-ylamino]pyrido [3,2-d]pyrimidine-8 carboxamide dihydrochloride] | < 500 nM | < 100 nM |  | 
NC(=O)c1cc(-c2ccc(C3(N4CCOCC4)CC3)cc2)nc2c(N[C@H]3CCCNC3)ncnc12 [Example 28, 6-[4-[1-(morpholin-4-yl)cyclopropyl]phenyl]-4-[(3S)-piperidin-3-ylamino]pyrido [3,2-d]pyrimidine-8-carboxamide] | < 500 nM | < 100 nM |  | 
C[C@@H]1COC[C@H](C)N1Cc1ccc(-c2cc(C(N)=O)c3ncnc(N[C@@H]4CNCCC4(F)F)c3n2)cc1 [Example 29, 4-[[(3R)-4,4-difluoropiperidin-3-yl]amino]-6-(4-[[(3R,5S)-3,5-dimethylmorpholin-4-yl]methyl]phenyl)pyrido[3,2-d]pyrimidine-8-carboxamide] | > 1000 nM | < 100 nM |  | 
NC(=O)c1cc(-c2ccc(CN3CCOCC3)cc2)nc2c(N[C@H]3CCCNC3)ncnc12 [Example 30, 6-[4-(morpholin-4-ylmethyl)phenyl]-4-[(3S)-piperidin-3-ylamino]pyrido[3,2-d]pyrimidine-8-carboxamide] | < 500 nM | < 100 nM |  | 
NC(=O)c1cc(-c2ccc(OC(F)(F)F)cc2)nc2c(N[C@H]3CCCNC3)ncnc12 [Example 31, 4-[(3S)-piperidin-3-ylamino]-6-[4-(trifluoromethoxy)phenyl]pyrido[3,2-d]pyrimidine-8-carboxamide] | 500 to 1000 nM | < 100 nM |  | 
NC(=O)c1cc(-c2ccc(N3CCC(O)C3)nc2)nc2c(N[C@@H]3CNC[C@@H](F)C3)ncnc12 (stereo partly drawn) [Example 32, 4-(((3S,5S)-5-fluoropiperidin-3-yl)amino)-6-(6-(3-hydroxypyrrolidin-1-yl)pyridin-3-yl)pyrido[3,2-d]pyrimidine-8-carboxamide] | > 1000 nM | < 100 nM |  | 
NC(=O)c1cc(-c2cc(F)c(OCC3(O)CCC3)c(F)c2)nc2c(N[C@@H]3CNC[C@@H](F)C3)ncnc12 [Example 33, 6-(3,5-difluoro-4-((1-hydroxycyclobutyl)methoxy)phenyl)-4-(((3S,5S)-5-fluoropiperidin-3-yl)amino)pyrido[3,2-d]pyrimidine-8-carboxamide] | < 500 nM | < 100 nM |  | 
NC(=O)c1cc(-c2ccc(OCC3(O)CC3)cc2)nc2c(N[C@@H]3CNC[C@@H](F)C3)ncnc12 [Example 34, 4-(((3S,5S)-5-fluoropiperidin-3-yl)amino)-6-(4-((1-hydroxycyclopropyl)methoxy)phenyl)pyrido[3,2-d]pyrimidine-8-carboxamide] |  |  | < 500 nM | < 100 nM
NC(=O)c1cc(-c2ccc(OCC3(O)CCCC3)cc2)nc2c(N[C@@H]3CNC[C@@H](F)C3)ncnc12 [Example 35, 4-(((3S,5S)-5-fluoropiperidin-3-yl)amino)-6-(4-((1-hydroxycyclopentyl)methoxy)phenyl)pyrido[3,2-d]pyrimidine-8-carboxamide] | 500 to 1000 nM | < 100 nM |  | 
NC(=O)c1cc(-c2cnn(C3CC3)c2)nc2c(N[C@@H]3CNC[C@@H](F)C3)ncnc12 [Example 36, 6-(1-cyclopropyl-1H-pyrazol-4-yl)-4-(((3S,5S)-5-fluoropiperidin-3-yl)amino)pyrido[3,2-d]pyrimidine-8-carboxamide] | 500 to 1000 nM | < 100 nM |  | 
NC(=O)c1cc(-c2cc(F)c(OCC3(O)CCOCC3)c(F)c2)nc2c(N[C@@H]3CNC[C@@H](F)C3)ncnc12 [Example 37, 6-(3,5-difluoro-4-((4-hydroxytetrahydro-2H-pyran-4-yl)methoxy)phenyl)-4-(((3S,5S)-5-fluoropiperidin-3-yl)amino)pyrido[3,2-d]pyrimidine-8-carboxamide] | < 500 nM | < 100 nM |  | 
CC(C)(O)COc1ccc(-c2cc(C(N)=O)c3ncnc(N[C@@H]4CNCC[C@@H]4F)c3n2)cc1 [Example 38, 4-(((3R,4S)-4-fluoropiperidin-3-yl)amino)-6-(4-(2-hydroxy-2-methylpropoxy)phenyl)pyrido[3,2-d]pyrimidine-8-carboxamide] | < 500 nM | < 100 nM |  | 
CC(O)(C#N)COc1ccc(-c2cc(C(N)=O)c3ncnc(N[C@H]4CCCNC4)c3n2)cc1 (stereo partly drawn) [Example 40, 6-(4-(2-cyano-2-hydroxypropoxy)phenyl)-4-(((S)-piperidin-3-yl)amino)pyrido[3,2-d]pyrimidine-8-carboxamide] | > 1000 nM | < 100 nM |  | 
NC(=O)c1cc(-c2ccc(OCC3(O)CCCC3)cc2)nc2c(N[C@H]3CCCNC3)ncnc12 [Example 41, (S)-6-(4-((1-hydroxycyclopentyl)methoxy)phenyl)-4-(piperidin-3-ylamino)pyrido[3,2-d]pyrimidine-8-carboxamide] | < 500 nM | < 100 nM |  | 
CC(C)(O)COc1ccc(-c2cc(C(N)=O)c3ncnc(N[C@@H]4CNCC[C@H]4F)c3n2)cc1 [Example 42, 4-(((3R,4R)-4-fluoropiperidin-3-yl)amino)-6-(4-(2-hydroxy-2-methylpropoxy)phenyl)pyrido[3,2-d]pyrimidine-8-carboxamide] | < 500 nM | < 100 nM |  | 
